Where “and” joins values, the source holds several entries; their conditions need not be identical. Identical values can stand only once.
Target: T1, SV2A (Macaca fascicularis, UniProt Q4R4X3)
T1 construct: The current study evaluates [^18F]UCB-H pharmacokinetics in healthy NHPs; from tissue; host or cells: brain of living healthy cynomolgus monkeys (in vivo PET)
Assay: Brain PET kinetic modelling (1TCM, 2TCM, 2TCM-c, Logan), test-retest
Format: in vivo, cynomolgus monkeys (Macaca fascicularis)
Method: All four non-human primates (NHP) underwent a 2-h (2 h) test and retest PET scan; two NHP underwent an additional 4-h (4 h) retest PET scan. Three NHP underwent one 4-h (4 h) displacement PET scan. Arterial blood sampling was performed during test and retest scans with PET imaging spaced by at least 3 weeks between each scan. To this end, the femoral artery opposite to the saphenous vein used for radioligand injection was cannulated. For the 2-h (2 h) scans, we collected in total 28 blood samples of 1 mL: 16 samples during the first 5 min followed by […] every 5 min and […] every 10 min. For the 4 h scans, we collected an additional 6 samples every 20 min during the last two hours (34 samples in total). Larger samples (2 – 3 mL) were collected at 5, 15, 30, 60, 90, 120 min (2 h) and at 180, 240 min (4 h) for metabolite analysis. Displacement of [^18F]UCB-H was done by intravenous (IV) administration 90 min after [^18F]UCB-H injection of a bolus of 30 mg/kg LEV, or of 80 µg/kg (≈250 nmol/kg) or 5 mg/kg (≈15 µmol/kg) of cold [^19F]-UCB-H. Full experimental design of all NHP is outlined in Additional file 1: Table 1.
PET imaging was performed on the microPET FOCUS220 (Siemens) under standard anesthesia and monitoring procedures. Data acquisition started with the IV bolus injection of [^18F]UCB-H (32.9 ± 1.0 MBq/kg, 0.35 ± 0.07 µg/kg). Dynamic PET images were reconstructed using standard OSEM-2D algorithms while correcting for radioactive decay, scatter, attenuation and detectors inhomogeneity, which were measured prior to PET scanning using respectively ^57Co and ^68Ge external sources.
PET image analysis was performed using PMOD software version 3.8 (PMOD Technologies Ltd., Zurich, Suisse). After individual co-registration of PET-MR images, a cynomolgus atlas published by Ballanger and coworkers was normalized to PET images to extract time activity curves in different brain regions. Volumes of interest (VOI) were cerebral white matter (16.7 cm^3), striatum (0.24 cm^3), thalamus (0.89 cm^3), cerebellum (3.83 cm^3), frontal—(2.50 cm^3), parietal—(5.35 cm^3), and temporal (8.22 cm^3) cortex, and whole brain (72.2 cm^3) as a composite region of all regions in the atlas. [^18F]UCB-H pharmacokinetics were evaluated by analyzing the time activity curves of the test- and retest scans using 1- and 2-tissue compartment models (unconstrained and constrained with global K1/k2 coupled fit across all regions, further referred to as 2TCM and 2TCM-c), and Logan graphical analysis with a fixed t* at 60 min [33] using the arterial plasma input function corrected for radio-metabolites to derive the volume of distribution in each region. Percentage standard error (%SE) was estimated from the theoretical parameter covariance matrix. Only reliable estimates (%SE less than 25%) were included in the current analyses. For the three drug studies, percent displacement of the total activity in the whole brain was estimated relative to an average baseline constructed from the two 4 h baseline studies. Briefly, Standardized Uptake Value (SUV) time activity curves (TACs) were calculated for the two baseline and the three displacement studies. Then, each curve was normalized to the SUV at t = 90 min, corresponding to the timeframe immediately before the administration of the drugs in the displacement studies. Baseline curves were averaged and the percent displacement of total activity was calculated as (baseline-displacement)/baseline at a given time post drug administration (see “Results”).
Statistical analysis was performed using R software (version 3.3.1.). Plasma, intact parent fraction and time activity curves were statistically compared between subjects using a one-factor variance analysis. Absolute Test–Retest variability (aTRV) of PET quantification parameters was calculated as ABS(test—retest) / AVERAGE(test, retest). […]

[1] = Cerebellum, Retest, individual NHP
[2] = Cerebellum, Test, individual NHP
[3] = Frontal Cortex, Retest, individual NHP
[4] = Frontal Cortex, Test, individual NHP

T1 sequence (Q4R4X3 whole entry): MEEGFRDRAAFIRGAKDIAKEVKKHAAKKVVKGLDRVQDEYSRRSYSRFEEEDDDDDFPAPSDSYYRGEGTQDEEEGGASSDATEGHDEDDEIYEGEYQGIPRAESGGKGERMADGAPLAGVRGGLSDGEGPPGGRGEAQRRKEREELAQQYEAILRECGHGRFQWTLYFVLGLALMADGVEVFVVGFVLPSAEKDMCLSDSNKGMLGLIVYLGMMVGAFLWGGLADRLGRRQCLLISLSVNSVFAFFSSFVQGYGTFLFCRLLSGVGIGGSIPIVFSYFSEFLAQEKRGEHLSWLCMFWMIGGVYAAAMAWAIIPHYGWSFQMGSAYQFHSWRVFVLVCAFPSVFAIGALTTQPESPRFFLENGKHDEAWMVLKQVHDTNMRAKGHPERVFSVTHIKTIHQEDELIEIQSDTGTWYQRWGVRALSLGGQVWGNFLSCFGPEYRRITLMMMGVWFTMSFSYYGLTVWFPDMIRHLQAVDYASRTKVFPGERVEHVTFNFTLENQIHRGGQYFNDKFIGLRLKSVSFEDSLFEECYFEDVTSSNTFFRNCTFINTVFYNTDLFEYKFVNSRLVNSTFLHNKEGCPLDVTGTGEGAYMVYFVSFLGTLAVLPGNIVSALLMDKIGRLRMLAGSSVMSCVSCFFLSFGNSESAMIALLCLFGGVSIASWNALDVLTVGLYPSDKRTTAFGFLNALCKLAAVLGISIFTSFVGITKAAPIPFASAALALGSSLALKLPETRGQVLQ

O=C1C[C@H](c2cc(F)c(F)c(F)c2)CN1Cc1ccncc1[18F] [[^18F]UCB-H]
aTRV of VT (1TCM): above 10% | ICC of VT, overall (2TCM-c): ~ 0.4 | aTRV of VT, overall (2TCM-c): ~ 17% | k3/k4 (surrogate of BPND), average (2TCM-c, average): 1.07 ± 0.02 and 1.1 | ICC of Logan (t* = 60) VT (Cerebellum): 0.32 | aTRV of Logan (t* = 60) VT (Cerebellum): 14% | K1 (2TCM) [1]: 0.62 ml/cm^3 /min and 0.26 ml/cm^3 /min and 0.34 ml/cm^3 /min and 0.36 ml/cm^3 /min | K1 (2TCM-c) [1]: 0.58 ml/cm^3 /min and 0.24 ml/cm^3 /min and 0.34 ml/cm^3 /min and 0.36 ml/cm^3 /min | K1/k2 (2TCM) [1]: 6.41 ml/cm^3 and 10.80 ml/cm^3 and 8.77 ml/cm^3 | K1/k2 (2TCM-c) [1]: 4.64 ml/cm^3 and 9.07 ml/cm^3 and 10.70 ml/cm^3 and 7.25 ml/cm^3 | VT (1TCM) [1]: 12.10 ml/cm^3 and 9.16 ml/cm^3 and 11.41 ml/cm^3 and 8.78 ml/cm^3 | VT (2TCM) [1]: 12.28 ml/cm^3 | VT (2TCM-c) [1]: 12.24 ml/cm^3 and 18.89 ml/cm^3 and 8.78 ml/cm^3 | VT (Logan) [1]: 12.38 ml/cm3 and 11.31 ml/cm3 and 11.82 ml/cm3 and 8.96 ml/cm3 | k3/k4 (2TCM-c) [1]: 1.64 and 0.80 | VT (1TCM) (Cerebellum, Retest, mean): 10.4 mL/cm^3 | VT (2TCM) (Cerebellum, Retest, mean): 12.3 mL/cm^3 | VT (2TCM-c) (Cerebellum, Retest, mean): 13.3 mL/cm^3 | VT (Logan (t* = 60)) (Cerebellum, Retest, mean): 11.1 mL/cm^3 | k3/k4 (BPND) (2TCM-c) (Cerebellum, Retest, mean): 1.22 | K1 (2TCM) [2]: 0.22 ml/cm^3 /min and 0.35 ml/cm^3 /min and 0.39 ml/cm^3 /min and 0.17 ml/cm^3 /min | K1 (2TCM-c) [2]: 0.23 ml/cm^3 /min and 0.33 ml/cm^3 /min and 0.39 ml/cm^3 /min and 0.17 ml/cm^3 /min | K1/k2 (2TCM) [2]: 5.68 ml/cm^3 and 6.39 ml/cm^3 and 10.81 ml/cm^3 and 6.69 ml/cm^3 | K1/k2 (2TCM-c) [2]: 4.35 ml/cm^3 and 8.22 ml/cm^3 and 10.99 ml/cm^3 and 7.86 ml/cm^3 | VT (1TCM) [2]: 8.70 ml/cm^3 and 9.24 ml/cm^3 and 12.07 ml/cm^3 and 9.02 ml/cm^3 | VT (2TCM) [2]: 10.64 ml/cm^3 and 10.48 ml/cm^3 | VT (2TCM-c) [2]: 9.72 ml/cm^3 | VT (Logan) [2]: 10.54 ml/cm3 and 10.32 ml/cm3 and 13.27 ml/cm3 and 10.85 ml/cm3 | k3/k4 (2TCM) [2]: 0.87 | k3/k4 (2TCM-c) [2]: 1.24 | VT (1TCM) (Cerebellum, Test, mean): 9.8 mL/cm^3 | VT (2TCM) (Cerebellum, Test, mean): 10.6 mL/cm^3 | VT (2TCM-c) (Cerebellum, Test, mean): 9.70 mL/cm^3 | VT (Logan (t* = 60)) (Cerebellum, Test, mean): 11.2 mL/cm^3 | k3/k4 (BPND) (2TCM-c) (Cerebellum, Test, mean): 1.24 | K1 (2TCM) [3]: 0.45 ml/cm^3 /min and 0.42 ml/cm^3 /min and 0.31 ml/cm^3 /min and 0.37 ml/cm^3 /min | K1 (2TCM-c) [3]: 0.48 ml/cm^3 /min and 0.45 ml/cm^3 /min and 0.31 ml/cm^3 /min and 0.37 ml/cm^3 /min | K1/k2 (2TCM) [3]: 12.79 ml/cm^3 and 10.20 ml/cm^3 | K1/k2 (2TCM-c) [3]: 4.64 ml/cm^3 and 9.07 ml/cm^3 and 10.70 ml/cm^3 and 7.25 ml/cm^3 | VT (1TCM) [3]: 14.34 ml/cm^3 and 16.78 ml/cm^3 and 11.35 ml/cm^3 and 12.88 ml/cm^3 | VT (2TCM) [3]: 14.38 ml/cm^3 and 12.14 ml/cm^3 and 12.88 ml/cm^3 | VT (2TCM-c) [3]: 14.39 ml/cm^3 and 18.59 ml/cm^3 and 12.71 ml/cm^3 and 12.90 ml/cm^3 | VT (Logan) [3]: 14.05 ml/cm3 and 20.21 ml/cm3 and 11.72 ml/cm3 and 13.18 ml/cm3 | k3/k4 (2TCM-c) [3]: 2.10 and 1.07 and 0.78 | K1 (2TCM) [4]: 0.24 ml/cm^3 /min and 0.53 ml/cm^3 /min and 0.38 ml/cm^3 /min and 0.22 ml/cm^3 /min | K1 (2TCM-c) [4]: 0.25 ml/cm^3 /min and 0.55 ml/cm^3 /min and 0.38 ml/cm^3 /min and 0.22 ml/cm^3 /min | K1/k2 (2TCM) [4]: 8.05 ml/cm^3 and 13.17 ml/cm^3 and 10.76 ml/cm^3 and 11.87 ml/cm^3 | K1/k2 (2TCM-c) [4]: 4.35 ml/cm^3 and 8.22 ml/cm^3 and 10.99 ml/cm^3 and 7.86 ml/cm^3 | VT (1TCM) [4]: 10.97 ml/cm^3 and 18.41 ml/cm^3 and 12.04 ml/cm^3 and 13.68 ml/cm^3 | VT (2TCM) [4]: 12.58 ml/cm^3 and 19.94 ml/cm^3 | VT (2TCM-c) [4]: 11.41 ml/cm^3 and 18.77 ml/cm^3 and 14.10 ml/cm^3 | VT (Logan) [4]: 12.20 ml/cm3 and 19.36 ml/cm3 and 13.14 ml/cm3 and 15.28 ml/cm3 | k3/k4 (2TCM) [4]: 0.56 | k3/k4 (2TCM-c) [4]: 1.63 and 1.51 and 0.61 | ICC of 2TCM-c VT (Frontal cortex): 0.84 | ICC of Logan (t* = 60) VT (Frontal cortex): 0.89 | aTRV of 2TCM-c VT (Frontal cortex): 11% | aTRV of Logan (t* = 60) VT (Frontal cortex): 11% | VT (1TCM) (Frontal cortex, Retest, mean): 13.8 mL/cm^3

Reference: PMC8026785, “The pharmacokinetics of [^18F]UCB-H revisited in the healthy non-human primate brain” (EJNMMI Research, 2021)
